Source: US20250188040A1, “PHARMACEUTICAL COMPOSITIONS COMPRISING WRN HELICASE INHIBITORS” (Vividion Therapeutics, Inc., priority 2022, published 2025)
Like-named read-outs stand apart in the source and are kept apart here.

Experiments:
WRN C727 [1] = target: T1, WRN C727 (Homo sapiens, UniProt Q14191); experiment: Target engagement, in situ (cell), OCI-AML2; format: cell-based; conditions: OCI-AML2 cells, read-out: OCI-AML2 WRN C727 TE50 in situ (cell)
T1 construct: endogenous in cells; host or cells: OCI-AML2
Experimental: Cells or cell lysates were treated with a dose response of compound followed by probe treatment, which labels solvent exposed cysteines. Proteins were enzymatically digested with trypsin and probe-labelled peptides were enriched with streptavidin. Isolated peptides were then separated using reversed-phase liquid chromatography on a C18 column (Dionex Ultimated 3000 nano-LC, Thermo). Peptides were analyzed by parallel reaction monitoring mass spectrometry (Exploris 120, Thermo).
Target engagement (%) is calculated relative to DMSO treated control samples.

[2] = target: hWRN(519-1227)_C-H3CV-GFP-10His (Homo sapiens, UniProt Q14191); experiment: Helicase Assay for WRN Inhibition (ATP-dependent, fluorescence based)
WRN C727 [3] = target: T1, WRN C727; experiment: Target engagement, in vitro (lysate), OCI-AML2; format: binding; conditions: read-out: OCI-AML2 WRN C727 TE50 in vitro (lysate)
Outline: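 OCI-AML2 intact cells or lysates dosed with compound, then a cysteine-reactive probe; after trypsin digestion, probe-labelled peptides were streptavidin-enriched and quantified by nano-LC parallel reaction monitoring MS. Engagement (%) relative to DMSO controls.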

SW480 cells = experiment: Cell growth assay (CellTiter-Glo 2.0), SW480 MSS cell line; conditions: Homo sapiens, SW480, 120 h, read-out: Cell Growth Inhibition GI50 SW480
Experimental: (§1) The effects of compound on cellular viability were determined using the CellTiter-Glo® 2.0 Luminescent Cell Viability Assay (Promega, Madison, WI).
(§2) SW480 cells were seeded at 1,000 cells per well in Eagle's Minimum Essential Medium (EMEM) with 10% FBS. Both cell lines were seeded in a volume of 50 μL medium per well. […] The concentration range was adjusted as needed for compounds of different potencies. The cells treated with compounds were incubated for 5 days at 37° C. in 5% CO2. […] The plate was then read on a Clariostar plate reader (BMG Labtech, Cary, NC) in luminescence mode. The previously measured baseline cell viability was subtracted from the luminescence value of each well, and cell viability (% of DMSO) was plotted as a function of log compound concentration. The EC50 was then calculated for each compound using Dotmatics Software (San Diego, CA).

HCT 116 cells = experiment: Cell growth assay (CellTiter-Glo 2.0), HCT 116 MSI-H cell line; conditions: Homo sapiens, HCT-116, 120 h, read-out: Cell Growth Inhibition GI50 HCT-116
Experimental: as §1, §2

[4] = WRN Helicase IC50, 30 min preincubation with ATP, 30 min reaction

T1 sequence (Q14191 whole entry): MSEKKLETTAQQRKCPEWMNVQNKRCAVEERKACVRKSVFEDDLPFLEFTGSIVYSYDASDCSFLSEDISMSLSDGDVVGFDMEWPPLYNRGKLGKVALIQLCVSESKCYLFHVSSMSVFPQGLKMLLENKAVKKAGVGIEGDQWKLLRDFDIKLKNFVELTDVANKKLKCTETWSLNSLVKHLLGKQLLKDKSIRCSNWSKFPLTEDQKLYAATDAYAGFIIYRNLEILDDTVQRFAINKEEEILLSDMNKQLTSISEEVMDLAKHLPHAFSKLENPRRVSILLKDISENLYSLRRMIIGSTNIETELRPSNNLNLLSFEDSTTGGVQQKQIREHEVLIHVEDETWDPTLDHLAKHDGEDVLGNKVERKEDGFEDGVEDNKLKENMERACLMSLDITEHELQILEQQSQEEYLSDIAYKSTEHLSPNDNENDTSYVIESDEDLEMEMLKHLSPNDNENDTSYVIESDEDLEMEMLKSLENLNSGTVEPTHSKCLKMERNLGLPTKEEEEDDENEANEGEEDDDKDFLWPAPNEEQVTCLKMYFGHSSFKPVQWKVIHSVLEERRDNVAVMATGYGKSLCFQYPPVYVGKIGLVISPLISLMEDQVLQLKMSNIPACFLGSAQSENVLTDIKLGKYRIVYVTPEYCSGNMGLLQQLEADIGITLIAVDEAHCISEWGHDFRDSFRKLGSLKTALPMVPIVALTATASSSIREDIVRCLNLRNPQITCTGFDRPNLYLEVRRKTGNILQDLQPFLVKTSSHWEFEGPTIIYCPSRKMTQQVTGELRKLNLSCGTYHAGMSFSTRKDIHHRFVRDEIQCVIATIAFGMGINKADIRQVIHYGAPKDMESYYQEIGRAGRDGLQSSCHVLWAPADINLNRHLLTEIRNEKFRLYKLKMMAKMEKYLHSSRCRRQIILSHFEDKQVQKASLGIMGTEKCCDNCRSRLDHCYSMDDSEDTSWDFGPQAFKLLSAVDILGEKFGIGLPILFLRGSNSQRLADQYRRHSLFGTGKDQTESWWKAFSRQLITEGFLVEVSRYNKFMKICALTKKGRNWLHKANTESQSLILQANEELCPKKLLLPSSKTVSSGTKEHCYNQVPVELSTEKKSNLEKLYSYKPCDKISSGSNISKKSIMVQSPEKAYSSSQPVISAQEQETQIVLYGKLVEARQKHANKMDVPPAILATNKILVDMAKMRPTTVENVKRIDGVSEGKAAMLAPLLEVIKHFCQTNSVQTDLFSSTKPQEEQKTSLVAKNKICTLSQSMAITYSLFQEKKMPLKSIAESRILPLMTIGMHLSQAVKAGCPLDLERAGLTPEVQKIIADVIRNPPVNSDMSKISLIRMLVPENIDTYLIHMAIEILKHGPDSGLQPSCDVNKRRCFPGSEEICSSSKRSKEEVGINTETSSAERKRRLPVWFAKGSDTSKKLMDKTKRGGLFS
hWRN(519-1227)_C-H3CV-GFP-10His, sequence (Q14191 519-1227): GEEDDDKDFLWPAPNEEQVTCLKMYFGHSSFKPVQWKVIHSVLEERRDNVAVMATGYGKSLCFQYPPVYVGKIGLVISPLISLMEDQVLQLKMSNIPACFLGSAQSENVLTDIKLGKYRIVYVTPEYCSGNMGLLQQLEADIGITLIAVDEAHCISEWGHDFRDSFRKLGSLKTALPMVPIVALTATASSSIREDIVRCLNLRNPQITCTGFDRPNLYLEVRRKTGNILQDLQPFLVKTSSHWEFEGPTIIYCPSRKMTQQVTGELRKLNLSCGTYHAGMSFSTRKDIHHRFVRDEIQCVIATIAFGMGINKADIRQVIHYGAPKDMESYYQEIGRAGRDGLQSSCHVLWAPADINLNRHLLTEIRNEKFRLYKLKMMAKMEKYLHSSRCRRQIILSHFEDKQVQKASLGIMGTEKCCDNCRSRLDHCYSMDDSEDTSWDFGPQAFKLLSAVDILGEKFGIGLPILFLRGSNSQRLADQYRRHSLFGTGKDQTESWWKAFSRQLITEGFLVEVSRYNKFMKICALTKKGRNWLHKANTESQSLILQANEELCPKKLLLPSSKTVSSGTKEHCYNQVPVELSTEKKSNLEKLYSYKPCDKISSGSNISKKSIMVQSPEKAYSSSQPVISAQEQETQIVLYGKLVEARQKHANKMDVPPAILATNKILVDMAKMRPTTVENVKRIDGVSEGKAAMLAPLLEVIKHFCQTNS

IC50 (WRN C727 [1])	IC50 [2, 4]	IC50 (WRN C727 [3])	GI50 (SW480 cells)	GI50 (HCT 116 cells)	IC50 [2]	Compound
1.5 µM	2.2 µM	22.3 µM	> 10 µM	2.5 µM		C[C@@H](/C=C/S(C)(=O)=O)NC(=O)c1cnc(C2CCCC2)nc1Oc1cc(F)cc(F)c1 [Example 116, (S,E)-2-cyclopentyl-4-(3,5-difluorophenoxy)-N-(4-(methylsulfonyl)but-3-en-2-yl)pyrimidine-5-carboxamide]
0.8 µM	1.89 µM	20 µM	> 16 µM	0.693 µM		C[C@@H](/C=C/S(C)(=O)=O)NC(=O)c1cnc(C2CC2)nc1OC1CCCC1 [Example 144, (S,E)-4-(cyclopentyloxy)-2-cyclopropyl-N-(4-(methylsulfonyl)but-3-en-2-yl)pyrimidine-5-carboxamide]
0.16 µM	0.5 µM	1.88 µM	> 10 µM	0.165 µM		C[C@@H](/C=C/S(C)(=O)=O)NC(=O)c1cnc(C(C)(C)C)nc1OC1CCCC1 [Example 153, (S,E)-2-(tert-butyl)-4-(cyclopentyloxy)-N-(4-(methylsulfonyl)but-3-en-2-yl)pyrimidine-5-carboxamide]
0.14 µM	0.33 µM	1.33 µM	8.97 µM	0.222 µM		C[C@@H](/C=C/S(C)(=O)=O)NC(=O)c1cnc(C(C)(C)C)nc1OC1CCCCC1 [Example 154, (S,E)-2-(tert-butyl)-4-(cyclohexyloxy)-N-(4-(methylsulfonyl)but-3-en-2-yl)pyrimidine-5-carboxamide]
0.56 µM	0.74 µM	1.76 µM	3.9 µM	0.4 µM		C[C@@H](/C=C/S(C)(=O)=O)NC(=O)c1cc(C#N)c(C2CCCC2)nc1Oc1ccccc1 [Example 163, (S,E)-5-cyano-6-cyclopentyl-N-(4-(methylsulfonyl)but-3-en-2-yl)-2-phenoxynicotinamide]
21.4 µM	12 µM	> 100 µM	> 10 µM	7.1 µM		C[C@@H](/C=C/S(C)(=O)=O)NC(=O)c1cnc(NC2CCCC2)nc1Oc1ccccc1 [Example 164, (S,E)-2-(cyclopentylamino)-N-(4-(methylsulfonyl)but-3-en-2-yl)-4-phenoxypyrimidine-5-carboxamide]
0.1 µM		0.64 µM	> 13.8 µM	0.102 µM	0.241 µM	CC(C)(C)c1ncc(C(=O)N2CC(=CS(C)(=O)=O)C2)c(Oc2ccccc2)n1 [Example 189, (2-(tert-butyl)-4-phenoxypyrimidin-5-yl)(3-((methylsulfonyl)methylene)azetidin-1-yl)methanone]
0.00875 µM	0.0483 µM	0.0932 µM	13.6 µM	0.017 µM		CS(=O)(=O)/C=C/[C@@H](NC(=O)c1cnc(C(F)(F)C2CC2)nc1Oc1ccccc1)C1CC1 [Example 224, (S,E)-N-(1-cyclopropyl-3-(methylsulfonyl)allyl)-2-(cyclopropyldifluoromethyl)-4-phenoxypyrimidine-5-carboxamide]
0.016 µM	0.0544 µM	0.119 µM	18 µM	0.017 µM		CS(=O)(=O)/C=C/[C@@H](NC(=O)c1cnc(C(F)(F)C2CC2)nc1Oc1ccccc1)C1CCC1 [Example 225, (S,E)-N-(1-cyclobutyl-3-(methylsulfonyl)allyl)-2-(cyclopropyldifluoromethyl)-4-phenoxypyrimidine-5-carboxamide]
6.65 µM		16.3 µM	8.1 µM	3.8 µM	2.3 µM	N#CC=C1CN(C(=O)c2cnc(C3CC3)nc2Oc2ccccc2)C1 [Example 264, 2-(1-(2-cyclopropyl-4-phenoxypyrimidine-5-carbonyl)azetidin-3-ylidene)acetonitrile]
3.96 µM		8.28 µM	7.8 µM	0.21 µM	0.38 µM	C=C(C#N)CNC(=O)c1cnc(C(F)(F)C2CC2)nc1Oc1ccccc1 [Example 272, N-(2-cyanoallyl)-2-(cyclopropyldifluoromethyl)-4-phenoxypyrimidine-5-carboxamide]
